Assay results from PubChem BioAssay (NCI).
Where “and” joins values, the source holds several entries; their conditions need not be identical. Equal values may be shown once.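 48-hour exposure; five concentrations; linearly interpolated endpoints. GI50 is the concentration that inhibits growth by half. Definition used: TGI = concentration required for complete inhibition of growth.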 Where a SMILES comes first, the peptide text is derived from it. [ ]: non-standard residue; d: D form. The star is where a group is joined. X13 = OC[C@H](CC1CCCCC1)N*; Aib = CC(C)(N)C(=O)O

Tested on: MDA-MB-468 breast
Experiment: inhibition of tumour cell growth, NCI panel, 48 h

Q: For Cc1ccc(C2=Nn3c(nnc3-c3ccccc3)SC2)cc1, which GI50 is on record?
A: 1.69 µM

Q: And the TGI?
A: 8.08 µM

Q: Which GI50 does the source give for CC(c1cc(Cl)ccc1O)c1cc(Cl)ccc1O here?
A: 2.98 µM

Q: What about the TGI of the same compound?
A: 9.47 µM

Q: With COC(=O)c1ccc2nc(-c3cc4ccccc4n3C)n(CCCCOc3cc4c(cc3OC)C(=O)N3CCC[C@H]3C=N4)c2c1 as the compound, how does the GI50 read?
A: 0.356 µM

Q: What about the TGI of the same compound?
A: 1.26 µM

Q: Which GI50 does the source give for CN1CCN(C(=O)[C@@]2(C)CC[C@]3(C)CC[C@]4(C)C(=CC[C@@H]5[C@@]6(C)CCC(=O)NC(C)(C)[C@@H]6CC[C@]54C)[C@@H]3C2)CC1 here?
A: 1.22 µM

Q: And the TGI?
A: 2.82 µM

Q: Which GI50 does the source give for C[C@@H](N)COc1ccc(-c2cnc3ccc(N[C@H](C)c4cccc(F)c4)nn23)cc1 here?
A: 1.13 µM

Q: And the TGI?
A: 2.67 µM

Q: What does the source list for Cc1ccc(F)c(NC(=O)Nc2ccc(-c3cccc4[nH]nc(N)c34)cc2)c1?
A: GI50: 2.37 µM and 1.86 µM; TGI: 5.28 µM and 4.61 µM

Q: With NC(=O)c1cccc2c(N[C@H](CN3CCC3)c3ccc(Cl)c(C(F)(F)F)c3)ncnc12 as the compound, how does the GI50 read?
A: 0.108 µM

Q: And the TGI?
A: 1.28 µM

Q: With CCCCCCCCCCCCCC[n+]1ccccc1 as the compound, how does the GI50 read?
A: 0.111 µM

Q: What about the TGI of the same compound?
A: 0.631 µM

Q: For CNS(=O)(=O)OCC1OC(n2cnc3cncnc32)C(O)C1O (stereo unspecified), which GI50 is on record?
A: > 100 µM

Q: What about the TGI of the same compound?
A: > 100 µM

Q: Which GI50 does the source give for COc1ccc(-c2cc(/C=C3\C(=O)Nc4cc(Cl)ccc43)[nH]n2)cc1 here?
A: 2.62 µM

Q: And the TGI?
A: 9.48 µM

Q: Which GI50 does the source give for Cc1ccccc1C1=C(c2cn(C)c3ccccc23)C(=O)NC1=O here?
A: 15.5 µM

Q: What about the TGI of the same compound?
A: > 25 µM

Q: Which GI50 does the source give for O=C(/C=C/C12c3ccccc3C(c3ccccc31)C1C(=O)N(c3ccc(Cl)cc3)C(=O)C12)c1ccccn1 (stereo unspecified) here?
A: 0.398 µM

Q: What does the source list for COC1=CC(c2ccc[nH]2)=N/C1=C\c1[nH]c(C)c(C(=O)CCC(=O)Oc2ccc3c(c2)CCC2C3CC[C@]3(C)[C@@H](O)CC[C@@H]23)c1C (stereo partly specified)?
A: GI50: 2.52 µM; TGI: 39.8 µM

Q: How did the GI50 turn out when CCC(C)(C)c1cc(O)c(C(C)(C)CC)cc1O was run?
A: 2.11 µM

Q: What about the TGI of the same compound?
A: 5.8 µM

Q: With CS(=O)(=O)N1CCC(n2c(=O)c(Oc3ccc(F)cc3F)cc3cnc(NC4CCOCC4)nc32)CC1 as the compound, how does the GI50 read?
A: > 25 µM

Q: What about the TGI of the same compound?
A: > 25 µM

Q: Which results are given for CN(C)C1CCN(Cc2ccc(NC(=O)c3cncc(C#Cc4cnc(N)c5ncccc45)c3)cc2C(F)(F)F)CC1?
A: GI50: 6.49 µM; TGI: 16.5 µM

Q: For Cc1ccc(-c2nc3nc(-c4ccc(F)cc4)nc(N4CCNCC4)c3o2)cc1, which GI50 is on record?
A: 1.74 µM

Q: And the TGI?
A: 3.38 µM

Q: Which GI50 does the source give for CN1CC=C(c2cc(NC(=O)Nc3ccc(Oc4ccnc(NC(=O)C5CC5)c4)c(F)c3)cc(C(F)(F)F)c2)CC1 here?
A: 0.286 µM

Q: What about the TGI of the same compound?
A: 1.99 µM

Q: CCn1c(-c2nonc2N)nc2c(C#CC(C)(C)O)ncc(OC3CCNCC3)c21 was tested. Which GI50 did it give?
A: 0.267 µM

Q: What about the TGI of the same compound?
A: 10.4 µM

Q: N#Cc1c(NCc2ccccc2)nc(NCc2ccccc2)c(C#N)c1-c1ccc(Cl)cc1 was tested. Which GI50 did it give?
A: > 50 µM

Q: What about the TGI of the same compound?
A: > 50 µM

Q: With CC1=C/C=C/C(=O)O[C@@H]([C@H](C)[C@H](O)[C@@H](C)NC(=O)C(C)C)[C@H](C)/C=C/C(C)=C/[C@H]2C=CCC[C@@]2(C)\C=C\1 as the compound, how does the GI50 read?
A: 0.11 µM and 0.0235 µM

Q: What about the TGI of the same compound?
A: 6.41 µM

Q: Which results are given for Cc1ccc([P+](Cc2ccccc2)(c2ccccc2)c2ccccc2)cc1?
A: GI50: 0.517 µM; TGI: 8.64 µM

Q: For Cn1cc(C2=C(c3c4n(c5ccccc35)CCNC4)C(=O)NC2=O)c2ccccc21, which GI50 is on record?
A: 3.81 µM

Q: What about the TGI of the same compound?
A: > 20.9 µM

Q: For CCCCCCC1N=C(N)N=C(N)N1c1cccc(Cl)c1 (stereo unspecified), which GI50 is on record?
A: 0.122 µM

Q: What about the TGI of the same compound?
A: 0.936 µM

Q: Which GI50 does the source give for CS(=O)(=O)CCNCc1ccc(-c2ccc3ncnc(Nc4ccc(OCc5cccc(F)c5)c(Cl)c4)c3c2)o1 here?
A: 0.0518 µM and 0.0571 µM and 0.013 µM

Q: What about the TGI of the same compound?
A: 0.818 µM and 0.999 µM and 0.152 µM

Q: For N#CC1C[C@@H]2CC3(CCC2CN1C(=O)c1ccccc1)OCCO3 (stereo partly specified), which GI50 is on record?
A: > 100 µM

Q: And the TGI?
A: > 100 µM

Q: How did the GI50 turn out when COc1cc(-c2cc3ncccc3c3nc(OCCN(C)C)c4cccnc4c23)cc(OC)c1OC was run?
A: 0.919 µM

Q: What about the TGI of the same compound?
A: 5.36 µM

Q: Oc1c(C(Nc2ccccn2)c2cccc(Oc3ccccc3)c2)ccc2cccnc12 (stereo unspecified) was tested. Which GI50 did it give?
A: 0.441 µM

Q: And the TGI?
A: 8.92 µM

Q: For C/C(CCC(=O)O)=N/Nc1ccc([N+](=O)[O-])cc1, which GI50 is on record?
A: > 100 µM

Q: And the TGI?
A: > 100 µM

Q: How did the GI50 turn out when COc1ccc2c(c1)N(Cc1ccc(Cl)cc1)CCC2N1CCCC1=O (stereo unspecified) was run?
A: 3.41 µM

Q: What about the TGI of the same compound?
A: 19.9 µM

Q: Which results are given for CCN1CCC(CC(=O)Nc2n[nH]c3nnc(-c4cccc(F)c4F)cc23)CC1?
A: GI50: 3.45 µM; TGI: > 23 µM

Q: O=C(c1ccccc1)C(Cl)C(Cl)c1ccccc1 (stereo unspecified) was tested. Which GI50 did it give?
A: 1.38 µM

Q: What about the TGI of the same compound?
A: 4.31 µM

Q: With CNC(=O)c1nn(C)c2c1C(C)(C)Cc1cnc(Nc3cccc(N4CCN(C)CC4)c3)nc1-2 as the compound, how does the GI50 read?
A: 0.348 µM

Q: And the TGI?
A: 3.3 µM

Q: With C[C@H](c1ccc(F)cc1CCCC(=O)O)N(c1cc(F)ccc1F)S(=O)(=O)c1ccc(Cl)cc1 as the compound, how does the GI50 read?
A: 17.3 µM

Q: What about the TGI of the same compound?
A: 84.7 µM

Q: What does the source list for CC(=O)NC(C)(C)C(=O)N[C@@H](C)C(=O)NC(C)(C)C(=O)N[C@@H](C)C(=O)NC(C)(C)C(=O)N[C@@H](C)C(=O)N[C@@H](CCC(N)=O)C(=O)NC(C)(C)C(=O)N[C@H](C(=O)NC(C)(C)C(=O)NCC(=O)N[C@@H](CC(C)C)C(=O)NC(C)(C)C(=O)N1CCC[C@H]1C(=O)N[C@H](C(=O)NC(C)(C)C(=O)NC(C)(C)C(=O)N[C@@H](CCC(N)=O)C(=O)N[C@@H](CCC(N)=O)C(=O)N[C@H](CO)CC1CCCCC1)C(C)C)C(C)C (Ac-[Aib]A[Aib]A[Aib]AQ[Aib]V[Aib]GL[Aib]PV[Aib][Aib]QQ-X13)?
A: GI50: 0.665 µM; TGI: > 4.35 µM

Q: Which GI50 does the source give for Oc1cc(N2CC2)c(O)cc1N1CC1 here?
A: 0.201 µM

Q: And the TGI?
A: 1.27 µM

Q: Which GI50 does the source give for O=C(CCCn1c2c(sc3ccccc32)c(=O)n2nnc(-c3ccccc3)c12)NCCc1cnc[nH]1 here?
A: 0.664 µM

Q: And the TGI?
A: 1.94 µM

Q: For CNCc1cccc2c1OCCCCCCC(C)(O)CC(C)(C)S(=O)(=O)c1ccc(cc1)-c1cnc(N)c(n1)C(=O)N2 (stereo unspecified), which GI50 is on record?
A: 0.196 µM

Q: And the TGI?
A: 1.16 µM

Q: What does the source list for CN1CCN(Cc2ccc(NC(=O)c3cncc(C#Cc4c(N)ncc5ccc(C#N)cc45)c3)cc2C(F)(F)F)CC1?
A: GI50: 2.89 µM; TGI: 11.5 µM

Q: For O=C([O][Hg][c]1ccccc1)c1ccccc1, which GI50 is on record?
A: 0.435 µM

Q: What about the TGI of the same compound?
A: 1.94 µM

Q: For OCc1ccc(-c2csc(-c3ccc(CO)o3)c2)o1, which GI50 is on record?
A: 0.188 µM

Q: What about the TGI of the same compound?
A: 0.486 µM
